Test [1] concerns CT26 tumor cells. Nature of the test: CT26 syngeneic mouse tumor model (survival and tumor volume). The settings on record: for Median Survival: CT26 tumor bearing BALB/cJ mice, PF-06952229 30 mg/kg PO BID 7 days on/7 off, palbociclib 10 mg/kg PO BID, PF-06873600 50 mg/kg PO BID, survival endpoint tumor volume 2000 mm^3. The format is in vivo. The method, then: CT26 cells were obtained from American Type Culture Collection (ATCC) and cultured in Roswell Park Memorial Institute (RPM11640) supplemented with 10% fetal bovine serum (FBS). All cells were maintained in a humidified incubator at 37° C. with 5% carbon dioxide (CO2). Female Balb/cJ mice were obtained from Jackson Laboratories at 8 weeks of age. To generate the syngeneic model, 0.25 million CT26 tumor cells were subcutaneously implanted into the right flank of female BALB/cJ mice. Tumor bearing mice were randomized into six treatment groups based on average tumor sizes of approximately 50 mm^3 per group, on Day 10 post tumor cell implantation. Study groups included vehicle, 30 mg/kg PF-06952229, 10 mg/kg PD-0332991 (Palbociclib), PF-06873600 (CDK 2/4/6 inhibitor), combination of PF-06952229 +PD-0332991 and combination of PF-06952229+PF-06873600. PF-06952229 was administered orally twice daily (BID) with 7 days on and 7 days off schedule. PD-0332991 or PF-06873600 was administered orally BID continuously, until the end of the study.
Tumor volumes were measured three times a week. Tumor volume was calculated based on two dimensional caliper measurement with cubic millimeter volume calculated using the formula (length×width2)×0.5. Mice were sacrificed when the tumor volumes reached 2000 mm^3, which was the survival endpoint for this study. Survival curves were plotted using GraphPad Prism 7 software. Statistical analyses were performed using the Log-rank (Mantel-Cox) test.

For test [2], the system named is MCF7 human ER+ breast cancer cells. Nature of the test: MCF7 human ER+ xenograft mouse tumor model (tumor volume). Format: in vivo. Particulars: NSG mice; Day 21 post-treatment initiation; PF-06952229 30 mg/kg PO BID 7 on/7 off, PD-0332991 10 mg/kg PO BID, PF-05279929 10 mg/kg SC twice per week; result in words. The method, then:
MCF7 human ER^+ breast cancer cells were obtained from American Type Culture
Collection (ATCC) and cultured in Roswell Park Memorial Institute (RPMI1640) supplemented with 10% fetal bovine serum (FBS). All cells were maintained in a humidified incubator at 37° C. with 5% carbon dioxide (CO2). Female NSG mice were obtained from Jackson Laboratories at 7 weeks of age. To generate the xenograft model, 17β-ESTRADIOL pellets (0.36 mg, 90-day release) were subcutaneously implanted into the left flank of female NSG mice, 7 days before the tumor cell implantation. Then 5 million MCF7 cancer cells were subcutaneously implanted into the right axial region of female NSG mice. Tumor-bearing mice were randomized into treatment groups based on average tumor sizes of approximately 180 mm^3, on Day 27 post-tumor cell implantation, and treatments were initiated. […]
Tumor volumes were measured two times a week. Tumor volume was calculated based on two-dimensional caliper measurement with cubic millimeter volume calculated using the formula (length×width^2)×0.5. Body weights were measured two times a week. […] Comparisons of treated groups to control group or to other treated groups are made using a t statistic under the ANCOVA model with fold change and the associated 95% confidence interval calculated.
In general terms: In xenograft studies the graft and the host belong to different species.

The test system of test [3] is pSMAD2. Nature of the test: pSMAD2 Bioassay of MCF7 xenograft tumor samples. The format is in vivo, human. Particulars: tumor samples Day 21 post-treatment initiation; result in words. As to the method: pSMAD2 Bioassay: Tumor samples were collected and snap-frozen in 2.0 mL cryogenic tubes (Nalgene™) prior to analysis. Thawed tumor samples were homogenized in cell extraction buffer (Invitrogen, Carlsbad, Calif.) with addition of protease and phosphatase inhibitors. Tumor lysates were centrifuged to pellet insoluble debris, and the clarified supernatants were transferred to new tubes. pSmad2 was measured using a 6-Plex TGFbeta Signaling Magnetic Bead Kit (Millipore, Burlington, Mass.). All assays were carried out at room temperature. After blocking a 96-well black round-bottom plate with assay buffer for 10 minutes, 25 μL of the working microsphere bead mixture (beads were diluted to 1× with assay buffer from kit) and 25 μL of 1:10 diluted tumor lysate (1:10 dilution with assay buffer) were added to the plate. […] After washing, the beads were resuspended in 150 μL/well of sheath fluid (Bio-Rad catalog # 171-000055) and analyzed using a Bio-Plex 200 analyzer (Bio-Rad, Hercules Calif.). The mean fluorescence intensity (MFI) from each well was determined using Bio-Plex Manager Software, version 6.1 (Bio-Rad). […]
Total Smad2 Bioassay: PathScan Total Smad2 Sandwich ELISA Kit (Cell signaling, Catolog #7244C) was used to determine the total Smad2 protein according to manufacturer's instructions. […] The absorbance of the samples at 450 nm was measured on a Spectramax plate reader (Molecular Devices).

Test [4] has as its system pS807/811 Rb. The experiment in a line: Phospho-Rb Ser807/811 Bioassay of MCF7 xenograft tumor lysates. Particulars: tumor samples Day 21 post-treatment initiation; result in words.

Structures are written as SMILES.

Take `CC(C)c1cnc(-c2cc(Cl)ccc2F)cc1Nc1ccncc1C(=O)NC(CO)CO` [PF-06952229, 4-(2-(5-chloro-2-fluorophenyl)-5-isopropylpyridin-4-ylamino)-N-(1,3-dihydroxypropan-2-yl)nicotinamide]: the “Median Survival” value in test [1] stood at 24 days. For the same molecule, the Tumor growth inhibition result in test [1] (Day 17 post-treatment initiation, result in words) is listed as “did not significantly inhibit tumor growth”; in test [2], “did not significantly inhibit tumor growth”. Moreover, the Survival result in test [1] (Day 40 post-treatment initiation, result in words) is “did not significantly increase survival”. Moreover, the “Inhibition of pSMAD2” value in test [3] is recorded as “significant inhibition of pSMAD2”. Also, the “pS807/811 Rb levels” value in test [4] is “slight increase”.
For `CC(=O)c1c(C)c2cnc(Nc3ccc(N4CCNCC4)cn3)nc2n(C2CCCC2)c1=O` [Palbociclib, 6-acetyl-8-cyclopentyl-5-methyl-2-(5-piperazin-1-yl-pyridin-2-ylamino)-8H-pyrido[2,3-d]pyrimidin-7-one, reference compound], the “Median Survival” value in test [1] came out at 26.5 days. Besides, the “pS807/811 Rb levels” value in test [4] is “slight decrease”.
In the case of `C[C@@]1(O)CCC[C@H]1n1c(=O)c(C(F)F)cc2cnc(NC3CCN(S(C)(=O)=O)CC3)nc21` [PF-06873600], in test [1], the “Median Survival” value was 26.5 days.

(Values after patent US20210346384A1, “COMBINATIONS OF TGF-BETA INHIBITORS AND CDK INHIBITORS FOR CANCER TREATMENTS” (PFIZER INC., priority 2018, published 2021).)
